From patent publication US20190315806A1, “POLYMYXIN DERIVATIVE, PREPARATION METHOD AND APPLICATION THEREOF” (priority 2016, published 2019)
Values after ≈ are worked out from the molar mass of the structure shown. Where a SMILES comes first, the peptide text is derived from it. Bridges are numbered along the chain shown (N, C = ends). [ ]: non-standard residue; d: D form. The star is where a group is joined. dPhe(4-NO2) = N[C@H](Cc1ccc([N+](=O)[O-])cc1)C(=O)O; Benzoyl(4-OPh) = O=C(c1ccc(Oc2ccccc2)cc1)*; dPhe(4-Cl) = N[C@H](Cc1ccc(Cl)cc1)C(=O)O; dPhe(2-Cl) = N[C@H](Cc1ccccc1Cl)C(=O)O; X7 = Cc1ccc(Oc2ccc(C(=O)*)cc2)cc1; X2 = CC[C@H](C)CCCCC(=O)*; X5 = CCCCCCCC(=O)CC(=O)*; Dab = NCC[C@H](N)C(=O)O; X9 = CCCCCCC(=O)CC(=O)*; X6 = CCCC(=O)CC(=O)*; X8 = CN(C)CCCCC(=O)*; X4 = COCCCCCC(=O)*

Columns and labels:
Assay type in all cases: cell-based
[1] = test system: Klebsiella pneumoniae ATCC BAA-2146 (NDM-1); test: Antibacterial activity, MIC by dish double dilution method; details: ATCC BAA-2146
Protocol: (§1) The minimum inhibitory concentration (MIC) was determined by means of dish double dilution method using a Multipoint inoculator according to the CLSI recommended method. The compounds of the present invention (for example, the compounds prepared in the Embodiments) and the reference substances were diluted twice each time with the broth into various desired concentrations, and appropriate amounts were added to the dishes. Agar medium is melted, and then quantitatively injected into the dish containing the drug solution, and mixed. The final concentrations of the compounds of the invention (e.g., the compounds prepared in the Embodiments) and the controls were 0.03, 0.06, 0.125, 0.25 . . . 128 μg/mL, respectively. The test bacteria were cultured overnight with nutrient broth, brain heart infusion or HTM broth. During the tests, the bacterial solutions were diluted appropriately, and the test bacteria (inoculation amount 10^4 CFU/dot) were inoculated on the surface of the drug-containing agar by a multi-point inoculator. After drying, the bacterial was incubated for 18 to 24 hours at 35° C., the results were observed, the minimum concentrations of the compounds of the present invention (for example, the compounds prepared in the Embodiments) and the controls contained in the dishes with no growth of colonies were MICs.
(§2) The strains used in the antibacterial activity experiments were from the American Type Culture Collection (ATCC) and clinical isolates.
(§3) The strains used for the experiments on antibacterial activity included Escherichia coli ATCC 25922, Klebsiella pneumoniae ATCC BAA-2146 (NDM-1), Pseudomonas aeruginosa ATCC 27853, Acinetobacter baumannii ATCC 19606 and Staphylococcus epidermidis ATCC 12228.
(§4) Tested samples: polymyxin derivatives prepared according to the technical scheme of the present invention;
(§5) Controls: polymyxin B sulfate and colistin (polymyxin E sulfate).

[2] = test system: Pseudomonas aeruginosa ATCC 27853; details: ATCC 27853
Protocol: as §1, §2, §3, §4, §5

[3] = test system: Staphylococcus epidermidis ATCC 12228; details: ATCC 12228
Protocol: as §1, §2, §3, §4, §5

[4] = test system: Escherichia coli ATCC 25922; details: ATCC 25922
Protocol: as §1, §2, §3, §4, §5

[5] = test system: Acinetobacter baumannii ATCC 19606; details: ATCC 19606
Protocol: as §1, §2, §3, §4, §5

| SMILES | MIC K. pneumoniae ATCC BAA-2146 (NDM-1) [1] [µg/mL] | MIC P. aeruginosa ATCC 27853 [2] [µg/mL] | MIC S. epidermidis ATCC 12228 [3] [µg/mL] | MIC E. coli ATCC 25922 [4] [µg/mL] | MIC A. baumannii ATCC 19606 [5] [µg/mL] |
| --- | --- | --- | --- | --- | --- |
| COCCCCCC(=O)N[C@@H](CCN)C(=O)N[C@H](C(=O)N[C@@H](CCN)C(=O)N[C@H]1CCNC(=O)[C@H]([C@@H](C)O)NC(=O)[C@H](CCN)NC(=O)[C@H](CCN)NC(=O)[C@H](CC(C)C)NC(=O)[C@@H](Cc2ccccc2)NC(=O)[C@H](CCN)NC1=O)[C@@H](C)O [Compound 1, 6-methoxycaproyl-Dab-Thr-Dab-ring(4-10)[Dab-Dab-D-Phe-Lue-Dab-Dab-Thr]] (X4-[Dab]T[Dab][Dab][Dab][dF]L[Dab][Dab]T; lactam 4-C) | 4 (≈ 3.36 µM) | 1 (≈ 0.839 µM) | >128 | 1 (≈ 0.839 µM) | 2 (≈ 1.68 µM) |
| CC(C)C[C@@H]1NC(=O)[C@@H](Cc2ccccc2)NC(=O)[C@H](CCN)NC(=O)[C@@H](NC(=O)[C@H](CCN)NC(=O)[C@@H](NC(=O)[C@H](CCN)NC(=O)CCCCN(C)C)[C@@H](C)O)CCNC(=O)[C@H]([C@@H](C)O)NC(=O)[C@H](CCN)NC(=O)[C@H](CCN)NC1=O [Compound 2, N,N-dimethylaminovaleryl-Dab-Thr-Dab-ring(4-10)[Dab-Dab-D-Phe-Lue-Dab-Dab-Thr]] (X8-[Dab]T[Dab][Dab][Dab][dF]L[Dab][Dab]T; lactam 4-C) | 128 (≈ 108 µM) | 1 (≈ 0.84 µM) | >128 | 16 (≈ 13.4 µM) | 8 (≈ 6.72 µM) |
| CCCC(=O)CC(=O)N[C@@H](CCN)C(=O)N[C@H](C(=O)N[C@@H](CCN)C(=O)N[C@H]1CCNC(=O)[C@H]([C@@H](C)O)NC(=O)[C@H](CCN)NC(=O)[C@H](CCN)NC(=O)[C@H](CC(C)C)NC(=O)[C@@H](Cc2ccccc2)NC(=O)[C@H](CCN)NC1=O)[C@@H](C)O [Compound 3, 3-oxocaproyl-Dab-Thr-Dab-ring(4-10)[Dab-Dab-D-Phe-Lue-Dab-Dab-Thr]] (X6-[Dab]T[Dab][Dab][Dab][dF]L[Dab][Dab]T; lactam 4-C) | 2 (≈ 1.7 µM) | 2 (≈ 1.7 µM) | 128 (≈ 109 µM) | 0.5 (≈ 0.425 µM) | 8 (≈ 6.81 µM) |
| CCCCCCC(=O)CC(=O)N[C@@H](CCN)C(=O)N[C@H](C(=O)N[C@@H](CCN)C(=O)N[C@H]1CCNC(=O)[C@H]([C@@H](C)O)NC(=O)[C@H](CCN)NC(=O)[C@H](CCN)NC(=O)[C@H](CC(C)C)NC(=O)[C@@H](Cc2ccccc2)NC(=O)[C@H](CCN)NC1=O)[C@@H](C)O [Compound 6, 3-oxononanoyl-Dab-Thr-Dab-ring(4-10)[Dab-Dab-D-Phe-Lue-Dab-Dab-Thr]] (X9-[Dab]T[Dab][Dab][Dab][dF]L[Dab][Dab]T; lactam 4-C) | 1 (≈ 0.821 µM) | 2 (≈ 1.64 µM) | 16 (≈ 13.1 µM) | 1 (≈ 0.821 µM) | 2 (≈ 1.64 µM) |
| CCCCCCCC(=O)CC(=O)N[C@@H](CCN)C(=O)N[C@H](C(=O)N[C@@H](CCN)C(=O)N[C@H]1CCNC(=O)[C@H]([C@@H](C)O)NC(=O)[C@H](CCN)NC(=O)[C@H](CCN)NC(=O)[C@H](CC(C)C)NC(=O)[C@@H](Cc2ccccc2)NC(=O)[C@H](CCN)NC1=O)[C@@H](C)O [Compound 7, 3-oxodecanoyl-Dab-Thr-Dab-ring(4-10)[Dab-Dab-D-Phe-Lue-Dab-Dab-Thr]] (X5-[Dab]T[Dab][Dab][Dab][dF]L[Dab][Dab]T; lactam 4-C) | 2 (≈ 1.62 µM) | 4 (≈ 3.25 µM) | 32 (≈ 26 µM) | 2 (≈ 1.62 µM) | 2 (≈ 1.62 µM) |
| CC(C)C[C@@H]1NC(=O)[C@@H](Cc2ccccc2)NC(=O)[C@H](CCN)NC(=O)[C@@H](NC(=O)[C@H](CCN)NC(=O)[C@@H](NC(=O)[C@H](CCN)NC(=O)c2ccc(Oc3ccccc3)cc2)[C@@H](C)O)CCNC(=O)[C@H]([C@@H](C)O)NC(=O)[C@H](CCN)NC(=O)[C@H](CCN)NC1=O [Compound 8, 4-(phenoxy)benzoyl-Dab-Thr-Dab-ring(4-10)[Dab-Dab-D-Phe-Lue-Dab-Dab-Thr]] ({Benzoyl(4-OPh)}-[Dab]T[Dab][Dab][Dab][dF]L[Dab][Dab]T; lactam 4-C) | 4 (≈ 3.18 µM) | 8 (≈ 6.35 µM) | 16 (≈ 12.7 µM) | 4 (≈ 3.18 µM) | 2 (≈ 1.59 µM) |
| Cc1ccc(Oc2ccc(C(=O)N[C@@H](CCN)C(=O)N[C@H](C(=O)N[C@@H](CCN)C(=O)N[C@H]3CCNC(=O)[C@H]([C@@H](C)O)NC(=O)[C@H](CCN)NC(=O)[C@H](CCN)NC(=O)[C@H](CC(C)C)NC(=O)[C@@H](Cc4ccccc4)NC(=O)[C@H](CCN)NC3=O)[C@@H](C)O)cc2)cc1 [Compound 9, 4-(p-methylphenoxy)benzoyl-Dab-Thr-Dab-ring(4-10)[Dab-Dab-D-Phe-Lue-Dab-Dab-Thr]] (X7-[Dab]T[Dab][Dab][Dab][dF]L[Dab][Dab]T; lactam 4-C) | 4 (≈ 3.14 µM) | 4 (≈ 3.14 µM) | 8 (≈ 6.28 µM) | 4 (≈ 3.14 µM) | 4 (≈ 3.14 µM) |
| CC[C@H](C)CCCCC(=O)N[C@@H](CCN)C(=O)N[C@H](C(=O)N[C@@H](CCN)C(=O)N[C@H]1CCNC(=O)[C@H]([C@@H](C)O)NC(=O)[C@H](CCN)NC(=O)[C@H](CCN)NC(=O)[C@H](CC(C)C)NC(=O)[C@@H](Cc2ccc(O)cc2)NC(=O)[C@H](CCN)NC1=O)[C@@H](C)O [Compound 12, (S)-6-methyloctanoyl-Dab-Thr-Dab-ring(4-10)[Dab-Dab-D-Tyr-Lue-Dab-Dab-Thr]] (X2-[Dab]T[Dab][Dab][Dab][dY]L[Dab][Dab]T; lactam 4-C) | 2 (≈ 1.64 µM) | 1 (≈ 0.82 µM) | 128 (≈ 105 µM) | 2 (≈ 1.64 µM) | 2 (≈ 1.64 µM) |
| CC[C@H](C)CCCCC(=O)N[C@@H](CCN)C(=O)N[C@H](C(=O)N[C@@H](CCN)C(=O)N[C@H]1CCNC(=O)[C@H]([C@@H](C)O)NC(=O)[C@H](CCN)NC(=O)[C@H](CCN)NC(=O)[C@H](CC(C)C)NC(=O)[C@@H](Cc2ccc([N+](=O)[O-])cc2)NC(=O)[C@H](CCN)NC1=O)[C@@H](C)O [Compound 14, (S)-6-methyloctanoyl-Dab-Thr-Dab-ring(4-10)[Dab-Dab-D-Phe(4-NO2)-Lue-Dab-Dab-Thr]] (X2-[Dab]T[Dab][Dab][Dab][dPhe(4-NO2)]L[Dab][Dab]T; lactam 4-C) | 2 (≈ 1.6 µM) | 2 (≈ 1.6 µM) | 8 (≈ 6.41 µM) | 1 (≈ 0.801 µM) | 1 (≈ 0.801 µM) |
| CC[C@H](C)CCCCC(=O)N[C@@H](CCN)C(=O)N[C@H](C(=O)N[C@@H](CCN)C(=O)N[C@H]1CCNC(=O)[C@H]([C@@H](C)O)NC(=O)[C@H](CCN)NC(=O)[C@H](CCN)NC(=O)[C@H](CC(C)C)NC(=O)[C@@H](Cc2ccc(Cl)cc2)NC(=O)[C@H](CCN)NC1=O)[C@@H](C)O [Compound 16, (S)-6-methyloctanoyl-Dab-Thr-Dab-ring(4-10)[Dab-Dab-D-Phe(4-Cl)-Lue-Dab-Dab-Thr]] (X2-[Dab]T[Dab][Dab][Dab][dPhe(4-Cl)]L[Dab][Dab]T; lactam 4-C) | 2 (≈ 1.62 µM) | 2 (≈ 1.62 µM) | 16 (≈ 12.9 µM) | 1 (≈ 0.808 µM) | 1 (≈ 0.808 µM) |
| CC[C@H](C)CCCCC(=O)N[C@@H](CCN)C(=O)N[C@H](C(=O)N[C@@H](CCN)C(=O)N[C@H]1CCNC(=O)[C@H]([C@@H](C)O)NC(=O)[C@H](CCN)NC(=O)[C@H](CCN)NC(=O)[C@H](CC(C)C)NC(=O)[C@@H](Cc2ccccc2Cl)NC(=O)[C@H](CCN)NC1=O)[C@@H](C)O [Compound 18, (S)-6-methyloctanoyl-Dab-Thr-Dab-ring(4-10)[Dab-Dab-D-Phe(2-Cl)-Lue-Dab-Dab-Thr]] (X2-[Dab]T[Dab][Dab][Dab][dPhe(2-Cl)]L[Dab][Dab]T; lactam 4-C) | 2 (≈ 1.62 µM) | 2 (≈ 1.62 µM) | 4 (≈ 3.23 µM) | 1 (≈ 0.808 µM) | 0.5 (≈ 0.404 µM) |
